Measured values reported in patent US6869935B2, “Gene Therapy for proliferative vitreoretinopathy” (priority 1996, dated 2005).
Values after ≈ are worked out from the molar mass of the structure shown.

Tests used:
HSV-tk positive RDFs = experiment: In vitro sensitivity to ganciclovir (XTT assay), HSV-tk positive RDFs; format: cell-based, rabbit; settings: Oryctolagus cuniculus, 72 hr of incubation, read-out: IC50 (concentration required for 50% cytotoxicity)
Experimental: (§1) The sensitivity of HSV-tk positive RDFs (100% HSV-tk transduced RDFs) and HSV-tk negative RDFs to ganciclovir was determined by using a tetrazolium-based calorimetric assay (XTT assay) (Scudiero et al., Cancer Research, Vol. 48, pgs. 4827-4833 (1988); Roehm et al., J. Immunol. Methods, Vol. 142, pgs. 257-265 (1991)). HSV-tk positive RDFs and HSV-tk negative RDFs were seeded at a density of 5×10^3 cells/well of 96-well culture plates (Corning) and incubated with DMEM-10 at 37° C. in 5% CO2 overnight. Then cells were treated with DMEM-10 containing various concentrations of ganciclovir (GCV; Cytovene; Syntex Inc., Palo Alto, Calif.) or only DMEM-10. After a total of 72 hr incubation, XTT assay was performed using a kit (cell proliferation II; Boehringer Mannheim, Indianapolis, Ind.). The results were read on a microplate reader (MR700; Dynatech Laboratories, Inc., Chantilly, Va.).

[1] = tested on: fibroblasts bearing the HSV-TK gene; settings: rabbits; intraocular injection of fibroblasts bearing the HSV-TK gene; cited from earlier work
[2] = tested on: mixtures of HSV-tk-positive and -negative RDFs; experiment: In vitro bystander effect, cocultures of HSV-tk positive and negative cells; format: cell-based, rabbit; settings: 1 μg/ml ganciclovir; 3 days of incubation; effect depended on percentage of HSV-tk positive cells
Experimental: To determine the cytotoxic effect of a small number of HSV-tk positive cells on neighboring HSV-tk-negative cells, cocultures of HSV-tk positive cells and HSV-tk-negative cells were performed by mixing these two cells in varying proportions. Briefly, mixtures of HSV-tk-positive and -negative RDFs (2.0×10^4 cells/well) were seeded at various mixing ratios (0, 1.0, 2.5, 5.0, 10, and 100% HSV-tk-positive cells of total cells) in 24-well culture plates (Corning) and incubated at 37° C. in 5% CO2 overnight. Cells were then treated with 1 μg/ml ganciclovir for 3, 5, and 7 days. The number of cells was counted with a Coulter counter (Coulter Electronics, Inc., Hialeah, Fla.).

[3] = tested on: experimental proliferative vitreoretinopathy (HSV-tk positive/negative RDFs); experiment: In vivo bystander effect in experimental proliferative vitreoretinopathy; parameters: species or system pigmented rabbits
Experimental: The right eye was used from each of 20 pigmented rabbits of both sexes, weighing 2.5 to 3.5 kg each. Vitrectomy was performed in the same manner as described above. One week after vitrectomy, group D (n=7) received an injection into the vitreous cavity of a mixture of 0.25×10^4 homologous HSV-tk positive RDFs (5% of total cells) and 4.75×10^4 homologous HSV-tk negative RDFs (95% of total cells). Group E (n=7) received a mixture of 0.05×10^4 homologous HSV-tk positive RDFs […] HSV-tk negative RDFs (95% of total cells). Group F (n=6) received 5.0×10^4 homologous HSV-tk negative RDFs as a control. All eyes received 200 μg of ganciclovir (0.1 ml of solution dissolved in distilled water) just after the cell injection and on day 4. Indirect ophthalmoscopic examinations were performed in a masked fashion on days 4, 7, 14 and 28. Clinical severity of PVR was graded from 0 to 5 as described above.

HSV-tk negative RDFs = experiment: In vitro sensitivity to ganciclovir (XTT assay), HSV-tk negative RDFs; format: cell-based, rabbit; settings: concentration range 0.001-50 μg/ml
Experimental: as §1

Nc1nc(O)c2ncn(COC(CO)CO)c2n1 [ganciclovir]
IC50 (HSV-tk positive RDFs): 0.1 µg/mL (≈ 0.392 µM) | Experimental PVR [1]: inhibited | Proliferation of co-culturing cells [2]: inhibited proliferation of co-culturing cells | Retinal detachment (stages 3-5) ([3]; group D (5% HSV-tk positive RDFs), 200 μg ganciclovir intravitreal after cell injection and day 4, day 4 and day 7): no retinal detachment | Retinal detachment (stages 3-5) ([3]; group D (5% HSV-tk positive RDFs), 200 μg ganciclovir, day 14 and day 28): No eyes showed retinal detachment | Retinal detachment (stages 3-5) ([3]; group E (1% HSV-tk positive RDFs), 200 μg ganciclovir, day 4 and day 7): no retinal detachment | Eyes with retinal detachment (stages 3-5) ([3]; group E (1% HSV-tk positive RDFs), 200 μg ganciclovir, day 14 and day 28): 14.3% | Eyes with retinal detachment (stages 3-5) ([3]; group F (100% HSV-tk negative RDFs), 200 μg ganciclovir, day 4): 16.7% | Eyes with retinal detachment (stages 3-5) ([3]; group F (100% HSV-tk negative RDFs), 200 μg ganciclovir, day 7): 50% | Eyes with retinal detachment (stages 3-5) ([3]; group F (100% HSV-tk negative RDFs), 200 μg ganciclovir, day 14 and day 28): 66.7% | Toxicity to HSV-tk negative RDFs (HSV-tk negative RDFs): no significant toxicity
